Data as given in patent US11407768B2, “AMPK activators” (Kallyope, Inc., priority 2020, dated 2022).
Where a name gives a salt, the structure may show the parent alone.

What was measured:
[1] = Pharmacokinetics (oral bioavailability) in C57BL/6 mice; conditions: mouse, in vivo; for bioavailability: IV 1 mg/kg, PO 30 mg/kg; for Vd: following IV administration, 1 mg/kg, read-out: volume of distribution
Procedure: Selected compounds were tested for pharmacokinetics in C57BL/6 mice. Compounds 1, 4, 31, 32, 40, 55, 57 and 60 were dosed IV at 1 mg/kg as a formulation of 0.2 mg/mL in 5% DMSO+30% PEG400+65% water and were dosed PO at 30 mg/kg as a formulation of 3 mg/mL in 0.25% MC+5% Tween 80+0.02% SDS. Compound 2 was dosed IV at 1 mg/kg as a formulation of 0.2 mg/mL in 5% ethanol +95% saline and was dosed PO at 30 mg/kg as a formulation of 3 mg/mL in 0.25% MC+5% Tween 80+0.02% SDS.

[2] = molecular target: Recombinant AMPK α1/β1/γ1 complex (Homo sapiens (Human), UniProt Q13131+Q9Y478); experiment: In vitro pAMPK1 kinase activation assay (ADP-Glo, SAMS peptide); type: biochemical; conditions: AMPK α1/β1/γ1 pre-activated with CAMKK2; 12-point curve; 15 min compound incubation
Sequence of Recombinant AMPK α1/β1/γ1 complex (Q13131 whole entry): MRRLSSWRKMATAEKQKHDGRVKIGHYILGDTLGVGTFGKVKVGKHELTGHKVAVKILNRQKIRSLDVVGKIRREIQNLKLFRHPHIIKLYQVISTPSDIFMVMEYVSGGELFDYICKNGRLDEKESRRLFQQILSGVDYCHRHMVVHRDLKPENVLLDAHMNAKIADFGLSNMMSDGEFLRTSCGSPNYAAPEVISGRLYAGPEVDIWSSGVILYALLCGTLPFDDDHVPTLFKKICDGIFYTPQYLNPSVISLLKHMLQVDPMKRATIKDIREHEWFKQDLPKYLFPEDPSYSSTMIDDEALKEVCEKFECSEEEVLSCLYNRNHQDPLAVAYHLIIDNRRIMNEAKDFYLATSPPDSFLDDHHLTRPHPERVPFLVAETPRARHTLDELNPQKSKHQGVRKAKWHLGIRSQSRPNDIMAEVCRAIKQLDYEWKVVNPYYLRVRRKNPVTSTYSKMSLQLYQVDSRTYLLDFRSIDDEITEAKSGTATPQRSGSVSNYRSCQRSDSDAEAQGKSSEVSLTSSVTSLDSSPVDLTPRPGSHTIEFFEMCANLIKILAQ
Sequence of Recombinant AMPK α1/β1/γ1 complex (Q9Y478 whole entry): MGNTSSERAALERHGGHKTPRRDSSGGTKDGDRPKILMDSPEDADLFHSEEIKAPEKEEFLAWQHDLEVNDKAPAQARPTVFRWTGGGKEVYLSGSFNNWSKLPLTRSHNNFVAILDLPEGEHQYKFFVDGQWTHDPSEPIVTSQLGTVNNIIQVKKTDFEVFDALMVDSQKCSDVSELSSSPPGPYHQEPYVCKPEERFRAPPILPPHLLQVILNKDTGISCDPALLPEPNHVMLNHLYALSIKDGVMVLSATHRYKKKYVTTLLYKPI
Sequence of Recombinant AMPK α1/β1/γ1 complex (P54619 whole entry partner): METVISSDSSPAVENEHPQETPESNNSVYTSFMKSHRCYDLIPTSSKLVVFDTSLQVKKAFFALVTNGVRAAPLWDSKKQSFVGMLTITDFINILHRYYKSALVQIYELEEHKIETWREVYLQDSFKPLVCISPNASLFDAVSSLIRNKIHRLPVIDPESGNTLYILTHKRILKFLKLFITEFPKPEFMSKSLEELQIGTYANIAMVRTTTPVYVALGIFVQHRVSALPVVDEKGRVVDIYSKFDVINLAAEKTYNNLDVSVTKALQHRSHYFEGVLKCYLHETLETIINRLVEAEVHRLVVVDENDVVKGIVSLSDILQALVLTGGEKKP
Procedure: Compound effect on AMPK enzyme activation was determined in a cell-free format with a 12-point concentration curve. The ADP-Glo detection system was used to determine phosphorylation of a SAMS peptide substrate. Recombinant AMPK α1/β1/γ1 complex was pre-activated by phosphorylation with CAMKK2 followed by incubated with compound for 15 minutes prior to the SAMS phosphorylation reaction. Activity curves and EC50 values were fitted by interpolation to an ATP:ADP standard curve as indicated by the ADP-Glo manufacturer using Prism software.

[3] = system: Chemotherapy-induced Intestinal Injury Model; experiment: Diarrhea in mouse chemotherapy-induced (5FU) intestinal injury model; type: in vivo, BALB/c mice; conditions: 5FU 400 mg/kg IP; for Diarrhea Score Day 5 / Diarrhea Score Day 6: score 0-3
Procedure: Compounds were formulated in vehicle (0.25% methyl cellulose, 5% Tween 80, 0.02% sodium dodecyl sulfate (SDS) in Hanks' Buffered Salt Solution with Ca' and Mg'). On day 1, either saline or a 400 mg/kg dose of 5-fluorouracil (5FU) in saline was administered by intraperitoneal injection to BALB/c mice. Starting on day 2, vehicle or compound was administered twice a day by oral gavage. From days 5 to 6 post-5FU, the animals were scored for diarrhea severity once a day. The diarrhea was scored 0-3 as follows: 0—normal consistency (black and solid), 1—soft (black and a bit lighter/yellow), 2—loosely shaped stool (yellowish and somewhat watery), 3—extreme diarrhea (very watery).

blood glucose levels = experiment: Intraperitoneal (IP) glucose tolerance test in mice; type: in vivo; conditions: for % Change in Average Total AUC (0-90 min) vs. Vehicle: 30 mpk PO, blood glucose, glucose 2 g/kg IP; for change in blood glucose AUC vs. vehicle / systemic AMPK activation (in words): 30 mpk for all compounds, up to 100 mpk for Compound 4
Description: Systemic AMPK target engagement in vivo can be assessed by measuring the glucose levels in blood following administration of compounds, whereby AMPK activation in skeletal muscle leads in a decrease in overall blood glucose levels.
Compounds were formulated in vehicle (0.25% methyl cellulose, 5% Tween 80, 0.02% sodium dodecyl sulfate (SDS) in Hanks' Buffered Salt Solution with Ca^2+ and Mg^2). Immediately prior to compound dosing, the tip of the tail was removed with scissors and a drop of blood was collected onto a glucometer strip (Bayer Contour Next) for a −1 hour blood glucose measure. The mice were then immediately administered vehicle or compound at 10 mL/kg PO. Approximately one hour later, mice were tail bled for a 0 min blood glucose reading, and then immediately after were administered D(+) glucose (2 g/kg, made up in saline) at 5 mL/kg IP. Tail bleeds were then performed on all mice at 20 min, 40 min, 60 min, and 90 min post D(+) glucose administration for blood glucose measures. Area under the curves (AUCs) for blood glucose measures were then calculated for each treatment from 0-90 mins.

in vitro = conditions: human; for Papp A→B at 2 h, 2 μM / Papp B→A at 2 h, 2 μM: Caco-2, pH 7.4
Procedure: (§1) Caco-2 cells purchased from ATCC were seeded onto […] (PET) in 96-well BD Insert plates at 1×10^5 cells/cm^2, and refreshed medium every 4-5 days until to the 21st to 28th day for confluent cell monolayer formation. The transport buffer in the study was HBSS with 10 mM HEPES at pH 7.40±0.05. Test compounds were tested at 2 μM bi-directionally in duplicate. Digoxin was tested at 10 μM bi-directionally in duplicate, while nadolol and metoprolol were tested at 2 μM in A to B direction in duplicate. Final DMSO concentration was adjusted to less than 1%.
(§2) The plate was incubated for 2 hours in CO2 incubator at 37±1° C., with 5% CO2 at saturated humidity without shaking. All samples were mixed with acetonitrile containing internal standard and were centrifuged at 4000 rpm for 10 min. Subsequently, 100 μL supernatant solution was diluted with 100 μL distilled water for LC/MS/MS analysis. Concentrations of test and control compounds in starting solution, donor solution, and receiver solution were quantified by LC/MS/MS, using peak area ratio of analyte/internal standard.

Caco-2 cells = experiment: in vitro
Procedure: as §1, §2

[4] = system: Acute Dextran Sulfate Sodium (DSS) Colitis Model; experiment: Intestinal barrier function in mouse acute DSS colitis model (FITC-dextran); type: in vivo, C57B1/6 mice; conditions: 30 mg/kg QD oral; 3% DSS 7 days; serum FITC-dextran
Procedure: Compounds were formulated in vehicle (0.25% methyl cellulose, 5% Tween 80, 0.02% sodium dodecyl sulfate (SDS) in Hanks' Buffered Salt Solution with Ca^2+ and Mg^2+). Vehicle or compound was administered once daily by oral gavage to C57B1/6 mice. After 3 days of pre-dosing, dextran sulfate sodium (DSS) was simultaneously administered at 3% in drinking water, and appropriate water-only controls were included.
After 7 days of DSS administration, animals treated were switched back to their regular water source and administered a single oral bolus dose of FITC-dextran (FD) four hours prior to necropsy. The animals were sacrificed by cardiac puncture and serum was collected. The concentration of […] present in serum was determined by measuring fluorescence intensity on a standard plate reader, and fitting values back to a standard curve.

[5] = system: Madin-Darby Canine Kidney (MDCK) cells; experiment: In vitro MDCK epithelial permeability assay (calcium switch, FITC-dextran); type: cell-based; conditions: low calcium medium, MDCK monolayers
Description: In order to quantitatively measure the effects of transporter substrate AMPK activators on epithelial permeability in vitro, standard calcium switch protocols from the literature were adapted for use with Madin-Darby Canine Kidney (MDCK) cells grown on Corning Transwell inserts for use with fluorescein isothiocyanate-dextran, average molecular weight 4 kDa (FITC-dextran). FITC-dextran is a large, metabolically inert sugar molecule that is not readily transferrable across healthy epithelial barriers in vitro or in vivo. This compound has been tagged with a fluorophore to easily track its movement.
Briefly, MDCK cells were seeded onto Transwell inserts and grown according to manufacturer instructions until confluent. On the day of the experiment, a baseline reading was taken in standard growth media in which FITC-dextran was spiked into the apical chamber and the percent permeation of FITC-dextran from the apical to the basolateral chamber was measured. The inserts were then washed in low calcium medium (LCM) containing either vehicle or compound to remove residual FITC-dextran and calcium, and FITC-dextran was once again spiked into the apical chamber and the percent permeation in LCM was measured. […] The fold induction of FITC-dextran permeation to the basolateral chamber when each well was transferred from baseline growth media to LCM was then calculated.

[6] = Caco-2, pH 7.4, Mean Recovery A to B
[7] = Caco-2, pH 7.4, Mean Recovery B to A

Row | bioavailability [1] [%] | Vd [1] [L/kg] | EC50 [2] [nM] | Compound | Diarrhea Score Day 5, % Change vs. Vehicle ([3]; 30 mpk BID oral) [%] | Diarrhea Score Day 6, % Change vs. Vehicle ([3]; 30 mpk BID oral) [%] | Diarrhea Score Day 5 ([3]; 30 mpk BID oral) | Diarrhea Score Day 6 ([3]; 30 mpk BID oral) | other results
1 | < 15 | < 5 | 0.85 | OCC1(CO)CCN(Cc2ccc(-c3ccc(-c4cc5nc(O[C@@H]6CO[C@H]7[C@@H]6OC[C@H]7O)[nH]c5cc4Cl)cc3)cc2)CC1 [Compound 60, (1-((4′-(6-chloro-2-(((3R,3aR,6R,6aR)-6-hydroxyhexahydrofuro[3,2-b]furan-3-yl)oxy)-1H-benzo[d]imidazol-5-yl)-[1,1′-biphenyl]-4-yl)methyl)piperidine-4,4-diyl)dimethanol] | −71 | −66 | 0.38 | 0.38 | 
2 | < 1 | < 5 | 1.4 | O=P(O)(O)c1ccc(-c2ccc(-c3nc4nc(O[C@@H]5CO[C@H]6[C@@H]5OC[C@H]6O)[nH]c4cc3Cl)cc2)cc1 [Compound 2, (4′-(6-chloro-2-(((3R,3aR,6R,6aR)-6-hydroxyhexahydrofuro[3,2-b]furan-3-yl)oxy)-1H-imidazo[4,5-b]pyridin-5-yl)-[1,1′-biphenyl]-4-yl)phosphonic acid] |  |  |  |  | % Change in Average Total AUC (0-90 min) vs. Vehicle (blood glucose levels): +6.6%; change in blood glucose AUC vs. vehicle / systemic AMPK activation (in words) (blood glucose levels): do not lead to activation of AMPK in skeletal muscle
3 | < 10 | < 5 |  | OCC(CO)NCc1ccc(-c2ccc(-c3cc4nc(O[C@@H]5CO[C@H]6[C@@H]5OC[C@H]6O)[nH]c4cc3Cl)cc2)cc1 [Compound 40, 2-(((4′-(6-chloro-2-(((3R,3aR,6R,6aR)-6-hydroxyhexahydrofuro[3,2-b]furan-3-yl)oxy)-1H-benzo[d]imidazol-5-yl)-[1,1′-biphenyl]-4-yl)methyl)amino)propane-1,3-diol] | −66 | −59 | 0.38 | 0.75 | 
4 | < 10 | < 5 | 0.85 | O=C(NCCOCCO)c1ccc(-c2ccc(-c3cc4nc(O[C@@H]5CO[C@H]6[C@@H]5OC[C@H]6O)[nH]c4cc3Cl)cc2)cc1 [Compound 31, 4′-(6-chloro-2-(((3R,3aR,6R,6aR)-6-hydroxyhexahydrofuro[3,2-b]furan-3-yl)oxy)-1H-benzo[d]imidazol-5-yl)-N-(2-(2-hydroxyethoxy)ethyl)-[1,1′-biphenyl]-4-carboxamide] | −67 | −61 | 0.43 | 0.63 | half-life [1]: 102 min; Papp A→B at 2 h, 2 μM (in vitro): 0.115 ×10⁻⁶ cm/s; Papp B→A at 2 h, 2 μM (in vitro): 31.7 ×10⁻⁶ cm/s; recovery at 2 h, 2 μM (in vitro; [6]): 83.2%; recovery at 2 h, 2 μM (in vitro; [7]): 97.8%; permeability (in words) (Caco-2 cells; Caco-2): low permeability; Change in Fluorescence Intensity vs. Vehicle [4]: −41%
5 | < 1 | < 5 | 0.05 | O=C(NC[C@H](O)[C@@H](O)[C@H](O)[C@H](O)CO)c1ccc(-c2ccc(-c3nc4nc(O[C@@H]5CO[C@H]6[C@@H]5OC[C@H]6O)[nH]c4cc3Cl)cc2)cc1 [Compound 1, 4′-(6-chloro-2-(((3R,3aR,6R,6aR)-6-hydroxyhexahydrofuro[3,2-b]furan-3-yl)oxy)-1H-imidazo [4,5-b]pyridin-5-yl)-N-((2S,3R,4R,5R)-2,3,4,5,6-pentahydroxyhexyl)-[1,1′-biphenyl]-4-carboxamide] |  |  |  |  | Papp A→B at 2 h, 2 μM (in vitro): < 0.25 ×10⁻⁶ cm/s; Papp B→A at 2 h, 2 μM (in vitro): 0.73 ×10⁻⁶ cm/s; efflux ratio at 2 h, 2 μM (in vitro; Caco-2, pH 7.4, Efflux Ratio): > 2; recovery at 2 h, 2 μM (in vitro; [6]): < 82.6%; recovery at 2 h, 2 μM (in vitro; [7]): 89.9%; permeability (in words) (Caco-2 cells; Caco-2): low permeability; Efflux Ratio (Caco-2 cells; human, Caco-2, 2 h, 2 μM, pH 7.4): >2.90; reduction of FITC-dextran permeation relative to vehicle ([5]; 0.1 μM): 33%; reduction of FITC-dextran permeation relative to vehicle ([5]; 10 μM): 35%; % Change in Average Total AUC (0-90 min) vs. Vehicle (blood glucose levels): −7.5%; change in blood glucose AUC vs. vehicle / systemic AMPK activation (in words) (blood glucose levels): do not lead to activation of AMPK in skeletal muscle
6 |  |  |  | CC(C)(C)NCC(O)COc1cccc2c1CC(O)C(O)C2 (stereo not drawn) [Nadolol, nadolol, reference compound] |  |  |  |  | Mean Recovery A to B (Caco-2 cells; Caco-2): 97.74%; Mean Papp A to B (Caco-2 cells; Caco-2, pH 7.4): 0.08 10^−6 cm/s

Row | Compound | bioavailability [1] [%] | Vd [1] [L/kg] | EC50 [2] [nM] | Diarrhea Score Day 5, % Change vs. Vehicle ([3]; 30 mpk BID oral) [%] | Diarrhea Score Day 6, % Change vs. Vehicle ([3]; 30 mpk BID oral) [%] | Diarrhea Score Day 5 ([3]; 30 mpk BID oral) | Diarrhea Score Day 6 ([3]; 30 mpk BID oral) | other results
7 | O=C(NCC[N+]12CCN(CC1)CC2)c1ccc(-c2ccc(-c3cc4nc(O[C@@H]5CO[C@H]6[C@@H]5OC[C@H]6O)[nH]c4cc3Cl)cc2)cc1 [Compound 32, 1-(2-(4′-(6-chloro-2-(((3R,3aR,6R,6aR)-6-hydroxyhexahydrofuro[3,2-b]furan-3-yl)oxy)-1H-benzo [d]imidazol-5-yl)-[1,1′-biphenyl]-4-carboxamido)ethyl)-1,4-diazabicyclo[2.2.2]octan-1-ium formate] | < 1 | < 1 |  |  |  |  |  | Diarrhea Score Day 5, % Change vs. Vehicle ([3]; 20 mpk BID oral): −43%; Diarrhea Score Day 6, % Change vs. Vehicle ([3]; 20 mpk BID oral): −52%; Diarrhea Score Day 5 ([3]; 20 mpk BID oral): 0.63; Diarrhea Score Day 6 ([3]; 20 mpk BID oral): 0.88
